Experimental data published in PubChem BioAssay (NCI).
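Method: 48-hour compound exposure of cells in 96-well plates, five concentrations, linear interpolation of endpoints. GI50: concentration for 50% inhibition of growth. TGI marks complete inhibition of growth.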

Key:
Experiment in all cases: growth of human tumour cells (NCI), 48 h
A498 renal = system: A498 renal
A549 NSCLC = system: A549 NSCLC
ACHN renal = system: ACHN renal
BT-549 breast = system: BT-549 breast
CAKI-1 renal = system: CAKI-1 renal
CCRF-CEM leukemia = system: CCRF-CEM leukemia
COLO 205 colon = system: COLO 205 colon
DU-145 prostate = system: DU-145 prostate
HCC-2998 colon = system: HCC-2998 colon
HCT-116 colon = system: HCT-116 colon
HCT-15 colon = system: HCT-15 colon
HOP-62 NSCLC = system: HOP-62 NSCLC
HS 578T breast = system: HS 578T breast
HT29 colon = system: HT29 colon
IGROV1 ovarian = system: IGROV1 ovarian
K-562 leukemia = system: K-562 leukemia
KM12 colon = system: KM12 colon
LOX IMVI melanoma = system: LOX IMVI melanoma
M14 melanoma = system: M14 melanoma
MCF7 breast = system: MCF7 breast
MDA-MB-231 breast = system: MDA-MB-231 breast
MDA-MB-435 = system: MDA-MB-435
MOLT-4 leukemia = system: MOLT-4 leukemia
NCI-H226 lung = system: NCI-H226 lung
NCI-H23 lung = system: NCI-H23 lung
NCI-H460 lung = system: NCI-H460 lung
NCI-H522 lung = system: NCI-H522 lung
NCI/ADR-RES ovarian = system: NCI/ADR-RES ovarian
OVCAR-3 ovarian = system: OVCAR-3 ovarian
OVCAR-4 ovarian = system: OVCAR-4 ovarian
OVCAR-5 ovarian = system: OVCAR-5 ovarian
OVCAR-8 ovarian = system: OVCAR-8 ovarian
PC-3 prostate = system: PC-3 prostate
RPMI-8226 leukemia = system: RPMI-8226 leukemia
RXF 393 renal = system: RXF 393 renal
SF-268 CNS = system: SF-268 CNS
SF-295 CNS = system: SF-295 CNS
SF-539 CNS = system: SF-539 CNS
SK-MEL-2 melanoma = system: SK-MEL-2 melanoma
SK-MEL-28 melanoma = system: SK-MEL-28 melanoma
SK-MEL-5 melanoma = system: SK-MEL-5 melanoma
SK-OV-3 ovarian = system: SK-OV-3 ovarian
SN12C renal = system: SN12C renal
SNB-19 CNS = system: SNB-19 CNS
SNB-75 CNS = system: SNB-75 CNS
SR leukemia = system: SR leukemia
SW-620 colon = system: SW-620 colon
T-47D breast = system: T-47D breast
TK-10 renal = system: TK-10 renal
U251 CNS = system: U251 CNS
UACC-257 melanoma = system: UACC-257 melanoma
UACC-62 melanoma = system: UACC-62 melanoma

SMILES: Nc1ncc(-c2ccc3ncnc(N4CCc5ccc(Cl)cc54)c3c2)cn1
- GI50 (A498 renal): 248 nM
- TGI (A498 renal): 800 nM
- GI50 (A549 NSCLC): 1260 nM
- TGI (A549 NSCLC): > 100000 nM
- GI50 (ACHN renal): 584 nM
- TGI (ACHN renal): > 100000 nM
- GI50 (BT-549 breast): 603 nM
- TGI (BT-549 breast): 8510 nM
- GI50 (CAKI-1 renal): 1190 nM
- TGI (CAKI-1 renal): > 100000 nM
- GI50 (CCRF-CEM leukemia): 1020 nM
- TGI (CCRF-CEM leukemia): > 100000 nM
- GI50 (COLO 205 colon): 2010 nM
- TGI (COLO 205 colon): 9530 nM
- GI50 (DU-145 prostate): 971 nM
- TGI (DU-145 prostate): > 100000 nM
- GI50 (HCC-2998 colon): 1500 nM
- TGI (HCC-2998 colon): 87200 nM
- GI50 (HCT-116 colon): 1680 nM
- TGI (HCT-116 colon): 10800 nM
- GI50 (HCT-15 colon): 1330 nM
- TGI (HCT-15 colon): > 100000 nM
- GI50 (HOP-62 NSCLC): 743 nM
- TGI (HOP-62 NSCLC): > 100000 nM
- GI50 (HS 578T breast): 437 nM
- TGI (HS 578T breast): 4390 nM
- GI50 (HT29 colon): 1060 nM
- TGI (HT29 colon): 82600 nM
- GI50 (IGROV1 ovarian): 291 nM
- TGI (IGROV1 ovarian): 2340 nM
- GI50 (K-562 leukemia): 2220 nM
- TGI (K-562 leukemia): > 100000 nM
- GI50 (KM12 colon): 2340 nM
- TGI (KM12 colon): 97600 nM
- GI50 (LOX IMVI melanoma): 870 nM
- TGI (LOX IMVI melanoma): 23500 nM
- GI50 (M14 melanoma): 1880 nM
- TGI (M14 melanoma): > 100000 nM
- GI50 (MCF7 breast): 684 nM
- TGI (MCF7 breast): 31700 nM
- GI50 (MDA-MB-231 breast): 994 nM
- TGI (MDA-MB-231 breast): > 100000 nM
- GI50 (MDA-MB-435): 2190 nM
- TGI (MDA-MB-435): > 100000 nM
- GI50 (MOLT-4 leukemia): 563 nM
- TGI (MOLT-4 leukemia): 3810 nM
- GI50 (NCI-H226 lung): 1350 nM
- TGI (NCI-H226 lung): 27400 nM
- GI50 (NCI-H23 lung): 1900 nM
- TGI (NCI-H23 lung): > 100000 nM
- GI50 (NCI-H460 lung): 1460 nM
- TGI (NCI-H460 lung): > 100000 nM
- GI50 (NCI-H522 lung): 2660 nM
- TGI (NCI-H522 lung): 15800 nM
- GI50 (NCI/ADR-RES ovarian): 1860 nM
- TGI (NCI/ADR-RES ovarian): > 100000 nM
- GI50 (OVCAR-3 ovarian): 1880 nM
- TGI (OVCAR-3 ovarian): > 100000 nM
- GI50 (OVCAR-4 ovarian): 1610 nM
- TGI (OVCAR-4 ovarian): 24800 nM
- GI50 (OVCAR-5 ovarian): 532 nM
- TGI (OVCAR-5 ovarian): > 100000 nM
- GI50 (OVCAR-8 ovarian): 1840 nM
- TGI (OVCAR-8 ovarian): > 100000 nM
- GI50 (PC-3 prostate): 739 nM
- TGI (PC-3 prostate): > 100000 nM
- GI50 (RPMI-8226 leukemia): 584 nM
- TGI (RPMI-8226 leukemia): 4440 nM
- GI50 (RXF 393 renal): 606 nM
- TGI (RXF 393 renal): 3000 nM
- GI50 (SF-268 CNS): 1630 nM
- TGI (SF-268 CNS): > 100000 nM
- GI50 (SF-295 CNS): 1030 nM
- TGI (SF-295 CNS): 6890 nM
- GI50 (SF-539 CNS): 1110 nM
- TGI (SF-539 CNS): 3790 nM
- GI50 (SK-MEL-2 melanoma): 1560 nM
- TGI (SK-MEL-2 melanoma): 4530 nM
- GI50 (SK-MEL-28 melanoma): 2010 nM
- TGI (SK-MEL-28 melanoma): > 100000 nM
- GI50 (SK-MEL-5 melanoma): 1460 nM
- TGI (SK-MEL-5 melanoma): 4940 nM
- GI50 (SK-OV-3 ovarian): 1370 nM
- TGI (SK-OV-3 ovarian): 7030 nM
- GI50 (SN12C renal): 813 nM
- TGI (SN12C renal): > 100000 nM
- GI50 (SNB-19 CNS): 2550 nM
- TGI (SNB-19 CNS): > 100000 nM
- GI50 (SNB-75 CNS): 418 nM
- TGI (SNB-75 CNS): 3980 nM
- GI50 (SR leukemia): 1040 nM
- TGI (SR leukemia): 18100 nM
- GI50 (SW-620 colon): 2830 nM
- TGI (SW-620 colon): > 100000 nM
- GI50 (T-47D breast): 313 nM
- TGI (T-47D breast): 30000 nM
- GI50 (TK-10 renal): 354 nM
- TGI (TK-10 renal): 3850 nM
- GI50 (U251 CNS): 2460 nM
- TGI (U251 CNS): > 100000 nM
- GI50 (UACC-257 melanoma): 2980 nM
- TGI (UACC-257 melanoma): > 100000 nM
- GI50 (UACC-62 melanoma): 1310 nM
- TGI (UACC-62 melanoma): 5980 nM
